According to patent publication US20070149456A1, “Epithelial sodium channel inhibiting agents and uses therefor” (University of Pittsburgh, priority 2005, published 2007):

Target: T1, wild-type ENaC co-expressed with prostasin (Mus musculus, UniProt Q61180+Q9WU38+Q9WU39)
T1 construct: expressed in transfected cells; host or cells: Xenopus laevis oocytes (cRNA co-injection)
Experiment: Two-electrode voltage clamp in oocytes co-expressing ENaC and prostasin
Assay type: cell-based
Settings: α-26 1 μM and 10 μM, aprotinin 1 μM present
Description: Oocyte Expression—cRNAs for α, β, γ mouse ENaC (wild-type and mutant) subunits and mouse prostasin were synthesized with T3 or T7 m-Message mMachineTM (Ambion, Austin, Tex.). Subunits carrying furin cleavage consensus site mutations and the corresponding wild-type subunits have amino-terminal HA and carboxyl-terminal V5 tags (Hughey, R. P., Bruns, J. B., Kinlough, C. L., Harkleroad, K. L., Tong, Q., Carattino, M. D., Johnson, J. P., Stockand, J. D., and Kleyman, T. R. (2004) J. Biol. Chem. 279, 18111-18114 18). Stage V-VI Xenopus laevis oocytes were pretreated with 1.5 mg/ml of type IV collagenase and injected with 0.5-2 ng of cRNA/subunit. Injected oocytes were maintained as previously reported (Carattino, M. D., Hill, W. G., and Kleyman, T. R. (2003), Arachidonic Acid Regulates Surface Expression of Epithelial Sodium Channels, J Biol. Chem. 278, 36202-36213 29).
Two-electrode Voltage Clamp—Two-electrode voltage clamp (TEV) was performed as previously described (Carattino, M. D., Hill, W. G., and Kleyman, T. R. (2003) J Biol. Chem. 278, 36202-36213 29). The extracellular solution (TEV solution) was (in mM): 110 NaCl, 2 KCl, 1.54 CaCl2, 10 HEPES, pH 7.4, or otherwise as indicated. […] ENaC-mediated whole cell Na^+ currents, at −60 mV,were defined as the amiloride-sensitive component of the current. […]

T1 sequence (Q61180 1-205): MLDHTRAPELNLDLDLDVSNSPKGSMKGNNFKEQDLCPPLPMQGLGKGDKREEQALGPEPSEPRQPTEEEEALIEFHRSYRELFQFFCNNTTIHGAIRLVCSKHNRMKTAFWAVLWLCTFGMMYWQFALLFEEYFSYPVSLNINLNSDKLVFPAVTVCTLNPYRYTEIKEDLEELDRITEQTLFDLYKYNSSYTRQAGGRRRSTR
T1 sequence (Q61180 232-699): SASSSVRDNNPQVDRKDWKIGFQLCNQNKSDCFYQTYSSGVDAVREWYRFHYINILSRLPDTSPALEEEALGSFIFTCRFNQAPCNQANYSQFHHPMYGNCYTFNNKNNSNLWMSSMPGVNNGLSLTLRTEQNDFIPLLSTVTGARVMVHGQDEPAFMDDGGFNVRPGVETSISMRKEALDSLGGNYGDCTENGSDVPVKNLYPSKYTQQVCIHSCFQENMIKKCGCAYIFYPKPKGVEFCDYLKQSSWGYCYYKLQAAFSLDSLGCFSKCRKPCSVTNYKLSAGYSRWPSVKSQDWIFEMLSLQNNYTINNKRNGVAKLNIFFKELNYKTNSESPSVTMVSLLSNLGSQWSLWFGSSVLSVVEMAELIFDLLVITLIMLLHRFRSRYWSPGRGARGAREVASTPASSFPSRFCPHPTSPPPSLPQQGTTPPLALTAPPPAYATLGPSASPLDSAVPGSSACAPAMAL
T1 sequence (Q9WU38 whole entry): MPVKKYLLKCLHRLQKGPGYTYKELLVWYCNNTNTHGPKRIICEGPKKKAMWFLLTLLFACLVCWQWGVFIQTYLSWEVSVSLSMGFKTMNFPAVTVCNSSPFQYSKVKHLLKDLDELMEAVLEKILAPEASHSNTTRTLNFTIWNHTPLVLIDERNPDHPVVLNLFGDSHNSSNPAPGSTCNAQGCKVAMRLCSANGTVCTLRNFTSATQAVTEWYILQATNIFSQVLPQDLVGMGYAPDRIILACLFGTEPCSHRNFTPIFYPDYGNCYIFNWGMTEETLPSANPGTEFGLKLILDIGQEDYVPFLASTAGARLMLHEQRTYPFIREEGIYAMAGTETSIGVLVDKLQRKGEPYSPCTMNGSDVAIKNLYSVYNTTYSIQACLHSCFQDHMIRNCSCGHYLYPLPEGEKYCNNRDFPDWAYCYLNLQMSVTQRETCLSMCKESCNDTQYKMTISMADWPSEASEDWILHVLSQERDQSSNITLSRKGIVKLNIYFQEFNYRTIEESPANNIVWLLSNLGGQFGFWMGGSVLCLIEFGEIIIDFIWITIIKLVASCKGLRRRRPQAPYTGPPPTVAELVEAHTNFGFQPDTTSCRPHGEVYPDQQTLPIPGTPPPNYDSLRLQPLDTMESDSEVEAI
T1 sequence (Q9WU39 1-143): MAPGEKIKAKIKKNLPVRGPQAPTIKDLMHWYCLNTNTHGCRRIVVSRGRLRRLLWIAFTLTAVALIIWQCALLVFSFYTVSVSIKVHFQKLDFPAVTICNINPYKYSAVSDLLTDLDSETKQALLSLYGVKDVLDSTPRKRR
T1 sequence (Q9WU39 187-655): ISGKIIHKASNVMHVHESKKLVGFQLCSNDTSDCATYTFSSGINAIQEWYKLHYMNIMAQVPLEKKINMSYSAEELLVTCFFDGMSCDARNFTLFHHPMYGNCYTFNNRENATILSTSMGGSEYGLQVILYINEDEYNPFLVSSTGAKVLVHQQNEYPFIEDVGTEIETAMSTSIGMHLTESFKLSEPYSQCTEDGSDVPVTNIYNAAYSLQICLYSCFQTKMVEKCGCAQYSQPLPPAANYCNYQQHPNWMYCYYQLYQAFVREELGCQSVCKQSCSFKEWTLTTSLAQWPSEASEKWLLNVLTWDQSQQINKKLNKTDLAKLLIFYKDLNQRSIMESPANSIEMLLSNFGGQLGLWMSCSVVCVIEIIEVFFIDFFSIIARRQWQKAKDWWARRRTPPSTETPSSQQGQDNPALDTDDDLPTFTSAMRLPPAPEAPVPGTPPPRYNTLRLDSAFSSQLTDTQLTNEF

Ac-DLRGALPHPLQRLRTPPPPNPARSAR-NH2 [α-26]
effect of prostasin co-expression on α-26-dependent inhibition of ENaC: significantly reduced the efficacy
